This test addresses Metallo-beta-lactamase type 2 (Klebsiella pneumoniae, UniProt C7C422). Nature of the test: Inhibition of his6-tagged NDM-1 (unknown origin) expressed in Escherichia coli BL21-DE3 incubated for 16 hrs.

Each structure is given as a SMILES string.

Metallo-beta-lactamase type 2, sequence (C7C422 whole entry): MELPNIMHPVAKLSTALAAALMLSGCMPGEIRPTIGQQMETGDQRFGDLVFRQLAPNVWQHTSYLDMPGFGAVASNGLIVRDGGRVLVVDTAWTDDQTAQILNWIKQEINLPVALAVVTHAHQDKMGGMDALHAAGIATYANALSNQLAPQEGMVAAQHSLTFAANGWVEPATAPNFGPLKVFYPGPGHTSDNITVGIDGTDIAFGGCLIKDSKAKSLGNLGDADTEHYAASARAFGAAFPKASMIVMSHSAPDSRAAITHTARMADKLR

`SC[C@H]1SC[C@@H]2Nc3ccccc3N21` came in with an IC50 of 770 nM.

Values taken from BindingDB's records for PubMed 38373290 (University of the Republic (UdelaR)).
